Values of other authors in patent US20210069377A1, “TISSUE SCAFFOLD” (priority 2018, published 2021).

Details: at 20° C. and 1 atm

solubility: about 375 g/100 g water
Compound: O=C(CO)[C@@H](O)[C@H](O)[C@H](O)CO [Fructose]
